Assays:
BCE cells = assay: Bovine capillary endothelial (BCE) cell proliferation assay; assay type: cell-based; conditions: 10 pg/ml to 1 μg/ml TNP-470-equivalent concentration, 72 h
Method: For the proliferation assay, cells were washed with PBS and dispersed in a 0.05% trypsin solution. Cells were suspended (15,000 cells/ml) in DMEM supplemented with 10% BCS and 1% GPS, plated onto gelatinized 24-well culture plates (0.5 ml/well), and incubated for 24 h (37° C., 10% CO2). The media was replaced with 0.25 ml of DMEM, 5% BCS and 1% GPS and the test sample applied. Cells were challenged with free or conjugated TNP-470 (10 pg/ml to 1 μg/ml TNP-470-equivalent concentration). After 30 min of incubation, media and bFGF were added to obtain a final volume of 0.5 ml of DMEM, 5% BCS, 1% GPS and 1 ng/ml bFGF. Control cells were grown with or without bFGF. After 72 hr, cells were dispersed in trypsin, resuspended in Hematall (Fisher Scientific, Pittsburgh, Pa.), and counted in a Coulter counter.

chick aortic ring = assay: Chick aortic ring endothelial sprouting assay; assay type: cell-based; conditions: for effect on outgrowth: 100 pg/ml
Method: Aortic arches were dissected from day-14 chick embryos, cut into cross-sectional fragments, and implanted in vitro in Matrigel using a modification of methods previously described (V. Muthulckaruppan, personal communication). When cultured in MCDB-131 medium supplemented with 5% fetal bovine serum, endothelial cells sprouted and vascular channel formation occurred within 24-48 hours. Free or conjugated TNP-470 (10 pg/ml to 1 μg/ml) was added to the culture.

VEGFR-2 = conditions: recently shown; cited from earlier work
Early mouse development = conditions: injected into 7 and 17 day-old BALB/c mice
Method: Free and conjugated TNP-470 were injected into 7 and 17 day-old BALB/c mice in order to test their effects on normal development.

LLC = assay: Antitumor activity on C57BL/6J mice bearing s.c. LLC; conditions: 30 mg/kg q.o.d., data not shown
[1] = human, in vivo; cited from earlier work
human melanoma (A2058) = assay type: in vivo; conditions: Caplostatin 30 mg/kg s.c. q.o.d; Avastin 1 mg/kg i.p. twice/week
Method: Combination treatment was also tested on mice bearing s.c. A2058 human melanoma, PC-3M-LN4 human prostate carcinoma or COLO-205 colon carcinoma or orthotopic intracranial U87-luciferase human glioblastoma.

[2] = test system: liver regeneration post hepatectomy; assay: Hepatectomy model (liver regeneration); assay type: in vivo, C57BL/6J mice
Method: Male C57BL/6J mice underwent a partial hepatectomy through a midline incision after general anesthesia with isoflourane^33. Free or conjugated TNP-470 (30 mg/kg) were given s.c. every other day for 8 days beginning on the day of surgery according to the scheme described in FIG. 4a. Alternatively, the doses given were 60 mg/kg the day of surgery and 4 days later or 120 mg/kg once on the day of the partial hepatectomy. The liver was harvested on the 8th day, weighed and analyzed by histology.
This non-neoplastic model is a relatively fast (8 days) in vivo angiogenesis-dependent process^33. We employed the hepatectomy model to compare the endothelial cell inhibitory activity of free and conjugated TNP-470, because liver regeneration post hepatectomy is angiogenesis-dependent, similar to tumor growth^33,34.

A2058 human melanoma = assay: Antitumor activity on SCID mice bearing s.c. A2058 human melanoma; assay type: in vivo; conditions: summary in conclusions, tumor models not named
Excerpt: Each group consisted of 5 mice.

| Molecule | inhibition of bFGF-induced proliferation (cytostatic effect) (BCE cells) | effect on outgrowth (chick aortic ring) | VEGFR-2 phosphorylation (VEGFR-2) | TIC (human melanoma (A2058)) | further results |
| --- | --- | --- | --- | --- | --- |
| CO[C@@H]1[C@H](OC(=O)NC(=O)CCl)CC[C@]2(CO2)[C@H]1[C@@]1(C)O[C@@H]1CC=C(C)C [TNP-470] | inhibited bFGF-induced proliferation | completely prevented outgrowth | inhibit VEGFR-2 phosphorylation | – | effect on normal development (weight gain) (Early mouse development): inhibited growth, by inhibiting weight gain; induction of weight loss (LLC): did |
| COc1cccc2c1C(=O)c1c(O)c3c(c(O)c1C2=O)C[C@@](O)(C(=O)CO)C[C@@H]3O[C@H]1C[C@H](N)[C@H](O)[C@H](C)O1 [doxorubicin] | – | – | – | – | t1/2α (in words) [1]: few minutes |
| Avastin: recombinant humanized antibody to Vascular Endothelial Growth Factor (VEGF), Genentech | – | – | – | 0.47 | – |
| N-(2-lydroxypropyl)methacrylamide (HPMA) copolymer-TNP-470 conjugate [HPMA copolymer-TNP-470] | inhibited bFGF-induced proliferation | completely prevented outgrowth | inhibit VEGFR-2 phosphorylation | 029 | effect on vascular sprouts (chick aortic ring; 50 pg/ml): reduced the number and length of vascular sprouts; inhibition of liver regeneration ([2]; 60 mg/kg every four days): had an equivalent effect as the 30 mg/kg q.o.d. dosing schedule; inhibition of liver regeneration ([2]; single injection of 120 mg/kg at the day of hepatectomy): had an equivalent effect as the 30 mg/kg q.o.d. dosing schedule; T/C values for the conjugate (summary) (A2058 human melanoma): 0.12-0.14 |

Reference: patent US20080248030A1, “Method of Treating Angiogenic Diseases” (Children's Medical Center Corporation, priority 2005, published 2008)
